In experiment [1] the target is Luciferin 4-monooxygenase (Photinus pyralis, UniProt P08659). The experiment can be described thus: Counter Screen for Luciferase-based Assay Positives. [Related pubchem assays: 620, 618, 411 ]. In general terms: Counterscreens check selectivity or assay interference.
For a further experiment, the system named is HT-1080. The experiment can be described thus: HT1080 cell viability loss – fluorescence readout (AID 620). Format: functional, cell-based. The conditions noted are these: Homo sapiens.
The target of another experiment is Cytochrome P450 2D6 (Homo sapiens, UniProt P10635).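 Also: CYP2D6 member of a cytochrome P450 panel assay.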
A further experiment concerns the target Cytochrome P450 2C9 (Homo sapiens, UniProt P11712).
The nature of experiment [2]: NIH-3T3 fibroblast cytotoxicity, dose response, cytotoxicity control, cell-based, fluorescence, Alamar Blue, secondary assay (AID 2327).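 Also: NIH-3T3 mouse fibroblasts cultured with fluconazole at 8 µg/mL.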 The experiment is classed as functional. For orientation: The colour change of resazurin is a common sign of viable cells or microbes.
Experiment [3] is described as follows: cells. Format: functional, cell-based.
Experiment [4] is described as follows: fluconazole-exposed Candida albicans growth modulators – fluorescence, retest, confirmation (AID 2467). The experiment is classed as functional, cell-based.
Experiment [5] can be described thus: cells. Format: functional, cell-based. The source holds these as a separate data set.
In experiment [6] the target is Voltage-gated inwardly rectifying potassium channel KCNH2 (Homo sapiens, UniProt Q12809). Briefly: concentration-dependent hERG rescue from blockers – cell-based, thallium flux, dose response (AID 2121). Format: ADME. For orientation: hERG is a cardiac potassium channel; its block is linked to QT prolongation.
Voltage-gated inwardly rectifying potassium channel KCNH2, sequence (Q12809 whole entry): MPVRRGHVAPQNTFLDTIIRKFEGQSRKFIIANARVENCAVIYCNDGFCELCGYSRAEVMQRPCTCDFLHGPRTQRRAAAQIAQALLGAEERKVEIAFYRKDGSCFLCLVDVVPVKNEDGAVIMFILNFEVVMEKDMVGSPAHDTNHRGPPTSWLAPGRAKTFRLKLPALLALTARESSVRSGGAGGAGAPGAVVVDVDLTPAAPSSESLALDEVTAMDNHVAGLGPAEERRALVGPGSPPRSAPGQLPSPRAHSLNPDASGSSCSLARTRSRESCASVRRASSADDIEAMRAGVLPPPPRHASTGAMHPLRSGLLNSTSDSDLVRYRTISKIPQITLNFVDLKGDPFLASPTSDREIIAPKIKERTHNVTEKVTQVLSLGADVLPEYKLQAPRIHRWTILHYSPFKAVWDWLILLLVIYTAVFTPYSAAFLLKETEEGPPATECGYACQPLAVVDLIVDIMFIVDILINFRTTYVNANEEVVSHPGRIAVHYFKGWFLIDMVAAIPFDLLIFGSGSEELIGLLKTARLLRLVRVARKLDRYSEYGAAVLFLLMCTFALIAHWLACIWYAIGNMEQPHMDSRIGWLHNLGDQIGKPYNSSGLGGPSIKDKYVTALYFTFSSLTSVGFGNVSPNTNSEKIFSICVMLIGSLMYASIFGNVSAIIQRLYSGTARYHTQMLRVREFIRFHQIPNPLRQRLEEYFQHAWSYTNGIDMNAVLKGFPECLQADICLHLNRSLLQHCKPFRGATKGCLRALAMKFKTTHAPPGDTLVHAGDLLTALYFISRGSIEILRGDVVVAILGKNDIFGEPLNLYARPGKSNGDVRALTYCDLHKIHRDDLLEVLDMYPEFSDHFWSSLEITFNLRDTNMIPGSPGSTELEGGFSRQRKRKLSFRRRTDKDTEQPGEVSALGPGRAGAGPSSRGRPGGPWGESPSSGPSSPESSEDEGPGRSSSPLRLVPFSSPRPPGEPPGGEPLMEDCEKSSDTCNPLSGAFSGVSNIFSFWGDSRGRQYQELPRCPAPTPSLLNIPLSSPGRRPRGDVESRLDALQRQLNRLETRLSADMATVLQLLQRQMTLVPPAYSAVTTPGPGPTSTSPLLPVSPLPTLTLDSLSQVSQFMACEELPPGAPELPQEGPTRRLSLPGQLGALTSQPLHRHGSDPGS
Experiment [7] deals with Aryl hydrocarbon receptor (Homo sapiens, UniProt P35869). Briefly: Luminescence-based cell-based high throughput dose response assay for activators of the Aryl Hydrocarbon Receptor (AHR). [Related pubchem assays: 2796 (Primary screen (AHR activators in singlicate)), 2845 (Confirmation screen (AHR activators in triplicate)), 434939 (Counterscreen (PXR activators in triplicate)), 2804 (Summary (AHR activators))]. The experiment is classed as ADME.

For a further experiment, the target named is Mucolipin-3 (Homo sapiens, UniProt Q8TDD5). The experiment can be described thus: Dose response cell-based high-throughput screening assay for agonists of the transient receptor potential channel ML3 (TRPML3). [Related pubchem assays: 1526, 1424, 1448 ]. The experiment is classed as functional.
Mucolipin-3, sequence (Q8TDD5 whole entry): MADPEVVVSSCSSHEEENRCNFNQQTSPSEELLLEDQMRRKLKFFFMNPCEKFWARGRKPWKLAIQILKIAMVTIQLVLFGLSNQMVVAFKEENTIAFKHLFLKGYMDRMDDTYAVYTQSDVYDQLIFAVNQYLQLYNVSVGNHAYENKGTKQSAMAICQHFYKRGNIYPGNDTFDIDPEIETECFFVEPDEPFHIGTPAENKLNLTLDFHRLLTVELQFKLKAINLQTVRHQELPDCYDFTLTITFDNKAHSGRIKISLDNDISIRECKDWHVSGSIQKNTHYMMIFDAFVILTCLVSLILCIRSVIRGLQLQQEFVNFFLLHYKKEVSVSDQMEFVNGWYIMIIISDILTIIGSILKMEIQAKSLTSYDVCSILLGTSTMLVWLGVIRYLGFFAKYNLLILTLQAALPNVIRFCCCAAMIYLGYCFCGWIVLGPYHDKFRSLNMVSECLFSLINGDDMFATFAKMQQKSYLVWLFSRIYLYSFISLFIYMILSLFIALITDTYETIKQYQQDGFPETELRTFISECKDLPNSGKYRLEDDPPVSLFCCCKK
The next experiment has as its target Ion channel NompC (Danio rerio, UniProt Q7T1G6). Briefly: Fluorescence counterscreen assay for TRPML3 agonists: dose response cell-based high-throughput screening assay to identify agonists of the transient receptor potential channel N1 (TRPN1). [Related pubchem assays: 1526, 1424, 1448 ]. Format: functional.
Experiment [8] has as its target T1, Long-chain-fatty-acid--AMP ligase FadD28 (Mycobacterium tuberculosis, UniProt P9WQ59).
T1 sequence (P9WQ59 whole entry): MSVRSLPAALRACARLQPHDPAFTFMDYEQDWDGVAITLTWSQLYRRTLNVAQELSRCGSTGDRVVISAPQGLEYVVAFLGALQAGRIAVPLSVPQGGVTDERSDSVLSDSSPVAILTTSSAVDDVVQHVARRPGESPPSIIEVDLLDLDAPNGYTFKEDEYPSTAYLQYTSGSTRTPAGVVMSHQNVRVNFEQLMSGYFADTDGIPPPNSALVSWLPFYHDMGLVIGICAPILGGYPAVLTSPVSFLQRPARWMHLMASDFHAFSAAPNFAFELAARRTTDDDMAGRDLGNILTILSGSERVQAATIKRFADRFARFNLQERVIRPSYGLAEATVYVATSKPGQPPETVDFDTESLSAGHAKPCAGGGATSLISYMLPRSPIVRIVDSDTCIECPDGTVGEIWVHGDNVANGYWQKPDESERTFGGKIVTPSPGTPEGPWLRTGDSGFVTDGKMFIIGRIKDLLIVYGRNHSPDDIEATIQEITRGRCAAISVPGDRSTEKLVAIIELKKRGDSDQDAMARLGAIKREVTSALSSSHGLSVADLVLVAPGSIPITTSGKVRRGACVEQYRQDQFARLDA
The experiment can be described thus: Fluorescence polarization aasay to screen for inhibitors that compete for the binding of FadD28 to a bisubstrate Measured in Biochemical System Using Plate Reader - 2147-01_Inhibitor_Dose_CherryPick_Activity. The experiment is classed as functional, Mycobacterium tuberculosis H37Rv.

Experiment [9] can be described thus: viability of uninfected HEp-2 cells – cell-based, HTS, cytotoxicity control for RSV inhibitor project, dose response (AID 2410). The experiment is classed as functional. The conditions noted are these: human respiratory syncytial virus.
Experiment [10] has as its target T2, Mannose-6-phosphate isomerase (Homo sapiens, UniProt P34949).
T2 sequence (P34949 whole entry): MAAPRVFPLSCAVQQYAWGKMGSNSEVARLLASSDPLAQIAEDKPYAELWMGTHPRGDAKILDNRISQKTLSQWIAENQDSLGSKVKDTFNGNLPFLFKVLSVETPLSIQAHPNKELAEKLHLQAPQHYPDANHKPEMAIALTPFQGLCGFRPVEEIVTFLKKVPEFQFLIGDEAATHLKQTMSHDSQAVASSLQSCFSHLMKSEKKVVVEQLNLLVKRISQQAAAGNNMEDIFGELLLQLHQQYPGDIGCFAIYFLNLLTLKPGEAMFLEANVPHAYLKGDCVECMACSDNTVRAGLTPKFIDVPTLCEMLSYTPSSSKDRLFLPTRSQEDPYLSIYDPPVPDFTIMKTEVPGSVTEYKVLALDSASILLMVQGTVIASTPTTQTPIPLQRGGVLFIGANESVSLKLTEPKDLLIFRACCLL
Briefly: MPI enzyme activity inhibition – biochemical, fluorescence intensity, coupled assay, primary screen (AID 1209).

The nature of experiment [11]: Trypanosoma cruzi growth suppression in host cells – NIH3T3 host cells, beta-gal luminescence, confirmation (AID 2044).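 Also: intracellular parasites grown in NIH/3T3 mouse fibroblasts as host cells; luminescent beta-galactosidase reporter signal from transgenic T. cruzi replicating inside host cells; inhibitors lower the luminescence signal.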 Format: functional, cell-based.
The nature of experiment [12]: Luminescence-based dose response cell-based high throughput screening assay for cytotoxic compounds using the IEC-6 intestinal epithelial cell line. [Related pubchem assays: 1858 (Summary AID.), 1825 (Counterscreen.), 1907 (Confirmation screen.)]. The experiment is classed as functional.
The nature of experiment [13]: NIH3T3 cell viability loss – ATP luminescence, mouse fibroblasts, counter-screen, dose response (AID 2010).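 Also: cells exposed to compound for about 90 hours before reading.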 The experiment is classed as functional, cell-based.
Experiment [14] deals with T2, Mannose-6-phosphate isomerase. Briefly: MPI inhibition at elevated mannose 6-phosphate – biochemical, fluorescence intensity, high mannose 6-phosphate, primary screen (AID 1220).
The target of experiment [15] is Photoreceptor-specific nuclear receptor (Homo sapiens, UniProt Q9Y5X4). Format: functional, cell-based.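 Also: CHO-S cells with Gal4-NCOR and VP16-NR2E3 two-hybrid luciferase reporter.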
Photoreceptor-specific nuclear receptor, sequence (Q9Y5X4 whole entry, the tested form may be a part): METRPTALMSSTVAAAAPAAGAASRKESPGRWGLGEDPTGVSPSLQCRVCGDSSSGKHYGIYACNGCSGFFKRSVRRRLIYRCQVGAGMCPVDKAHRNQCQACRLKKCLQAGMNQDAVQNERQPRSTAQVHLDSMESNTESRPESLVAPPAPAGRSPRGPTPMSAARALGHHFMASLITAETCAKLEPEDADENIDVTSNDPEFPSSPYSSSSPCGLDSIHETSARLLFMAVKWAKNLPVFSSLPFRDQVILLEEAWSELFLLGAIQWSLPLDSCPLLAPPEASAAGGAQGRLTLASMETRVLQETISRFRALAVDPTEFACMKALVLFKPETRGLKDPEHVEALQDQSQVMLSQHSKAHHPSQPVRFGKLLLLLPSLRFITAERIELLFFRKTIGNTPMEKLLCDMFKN
Experiment [16] is described as follows: cells.
Experiment [17] can be described thus: lung carcinoma cell viability loss – CellTiter-Glo luminescence, dry powder, set 17, dose response (AID 1117284). Format: functional, cell-based. The conditions noted are these: A549.
Experiment [18] is described as follows: Dd2 parasite growth inhibition in erythrocytes – SYBR Green, dry powder samples, set 9, dose response (AID 1159568). The experiment is classed as functional, cell-based.
Experiment [19] can be described thus: rise of 2N DNA cells, HeLa – IC50, dose response (AID 1117349). The experiment is classed as functional, cell-based.
The nature of experiment [20]: rise of 4N DNA cells, HeLa – IC50, dose response (AID 1117351). The experiment is classed as functional, cell-based.

The source made the active and inactive calls.

Ion channel NompC, sequence (Q7T1G6 whole entry): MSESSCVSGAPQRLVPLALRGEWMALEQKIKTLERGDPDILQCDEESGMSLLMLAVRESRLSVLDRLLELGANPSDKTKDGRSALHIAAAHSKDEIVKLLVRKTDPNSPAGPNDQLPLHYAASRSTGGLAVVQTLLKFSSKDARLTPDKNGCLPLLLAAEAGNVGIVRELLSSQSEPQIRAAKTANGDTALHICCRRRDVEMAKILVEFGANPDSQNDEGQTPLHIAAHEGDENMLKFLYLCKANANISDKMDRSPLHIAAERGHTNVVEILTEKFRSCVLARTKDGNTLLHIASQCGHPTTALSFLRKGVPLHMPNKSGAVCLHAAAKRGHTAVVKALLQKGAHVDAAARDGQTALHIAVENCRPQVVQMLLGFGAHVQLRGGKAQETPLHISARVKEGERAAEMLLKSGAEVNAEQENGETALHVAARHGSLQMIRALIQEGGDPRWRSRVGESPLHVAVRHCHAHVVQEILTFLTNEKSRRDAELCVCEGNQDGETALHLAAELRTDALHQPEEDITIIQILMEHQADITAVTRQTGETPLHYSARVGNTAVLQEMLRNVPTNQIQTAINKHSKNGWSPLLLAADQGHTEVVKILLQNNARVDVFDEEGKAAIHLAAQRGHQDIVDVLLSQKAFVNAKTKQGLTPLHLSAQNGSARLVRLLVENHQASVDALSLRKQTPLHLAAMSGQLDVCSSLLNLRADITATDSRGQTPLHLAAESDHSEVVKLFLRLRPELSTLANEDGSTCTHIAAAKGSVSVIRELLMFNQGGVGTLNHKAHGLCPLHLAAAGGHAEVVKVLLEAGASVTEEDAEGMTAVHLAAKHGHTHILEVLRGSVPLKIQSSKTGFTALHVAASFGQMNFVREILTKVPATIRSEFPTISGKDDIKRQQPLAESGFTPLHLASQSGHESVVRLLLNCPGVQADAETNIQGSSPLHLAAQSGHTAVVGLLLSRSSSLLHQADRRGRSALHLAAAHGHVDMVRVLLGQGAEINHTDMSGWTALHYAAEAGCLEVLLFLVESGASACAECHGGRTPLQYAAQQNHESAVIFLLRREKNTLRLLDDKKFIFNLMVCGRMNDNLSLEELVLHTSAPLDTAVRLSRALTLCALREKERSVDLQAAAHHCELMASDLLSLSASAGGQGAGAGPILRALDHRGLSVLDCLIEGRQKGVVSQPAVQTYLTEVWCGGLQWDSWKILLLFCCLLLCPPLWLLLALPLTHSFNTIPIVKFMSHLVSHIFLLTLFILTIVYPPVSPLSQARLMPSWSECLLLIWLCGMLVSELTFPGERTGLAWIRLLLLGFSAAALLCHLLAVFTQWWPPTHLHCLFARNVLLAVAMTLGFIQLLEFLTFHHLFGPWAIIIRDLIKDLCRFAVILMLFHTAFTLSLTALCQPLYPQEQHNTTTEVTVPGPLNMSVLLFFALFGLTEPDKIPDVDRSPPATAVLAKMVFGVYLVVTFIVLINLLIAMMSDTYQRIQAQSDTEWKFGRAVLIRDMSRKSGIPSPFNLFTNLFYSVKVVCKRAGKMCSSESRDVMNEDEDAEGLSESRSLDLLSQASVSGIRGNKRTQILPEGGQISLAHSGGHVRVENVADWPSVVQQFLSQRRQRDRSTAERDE
Luciferin 4-monooxygenase, sequence (P08659 whole entry): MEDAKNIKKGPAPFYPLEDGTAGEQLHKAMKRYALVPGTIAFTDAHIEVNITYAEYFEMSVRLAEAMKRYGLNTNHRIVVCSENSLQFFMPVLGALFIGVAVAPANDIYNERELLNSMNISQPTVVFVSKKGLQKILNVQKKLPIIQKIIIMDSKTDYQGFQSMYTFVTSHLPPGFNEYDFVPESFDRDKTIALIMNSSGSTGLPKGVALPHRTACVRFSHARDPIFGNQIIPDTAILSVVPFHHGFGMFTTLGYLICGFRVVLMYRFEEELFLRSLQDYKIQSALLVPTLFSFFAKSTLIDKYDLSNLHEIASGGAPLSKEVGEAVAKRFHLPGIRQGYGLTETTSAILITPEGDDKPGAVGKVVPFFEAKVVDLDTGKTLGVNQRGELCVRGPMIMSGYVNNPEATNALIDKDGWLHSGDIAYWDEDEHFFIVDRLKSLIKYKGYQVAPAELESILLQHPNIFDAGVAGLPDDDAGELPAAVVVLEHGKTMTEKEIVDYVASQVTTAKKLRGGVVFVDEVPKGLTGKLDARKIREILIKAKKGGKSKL
Cytochrome P450 2C9, sequence (P11712 whole entry): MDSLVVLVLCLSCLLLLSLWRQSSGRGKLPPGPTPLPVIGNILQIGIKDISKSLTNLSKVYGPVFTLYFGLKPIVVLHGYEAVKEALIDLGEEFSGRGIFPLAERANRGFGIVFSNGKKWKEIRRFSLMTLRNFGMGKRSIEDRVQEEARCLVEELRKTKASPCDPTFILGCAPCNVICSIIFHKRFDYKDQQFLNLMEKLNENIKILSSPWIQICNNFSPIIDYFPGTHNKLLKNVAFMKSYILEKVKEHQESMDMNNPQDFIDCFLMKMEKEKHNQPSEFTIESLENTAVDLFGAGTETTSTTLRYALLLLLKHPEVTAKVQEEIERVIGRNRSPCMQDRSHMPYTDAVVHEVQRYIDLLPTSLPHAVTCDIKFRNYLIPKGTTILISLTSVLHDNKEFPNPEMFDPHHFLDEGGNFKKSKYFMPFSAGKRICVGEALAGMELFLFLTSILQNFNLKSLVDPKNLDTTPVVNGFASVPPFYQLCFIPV

Take `COc1ccc(-c2nsc3c(N4CCCCC4)ncnc23)cc1`: the EC50 was 4.6 µM (active) in experiment [1] and > 50 µM (not active) with HT-1080. The AC50 is 15.8 µM (inconclusive) at Cytochrome P450 2D6 and 5.01 µM (inconclusive) on Cytochrome P450 2C9.

For `COc1ccc(NC(=O)C(=O)NNC(=O)c2ccc(Cl)cc2Cl)cc1`, the EC50 in [2] is > 150 µM (inactive); in the experiment “cells [3]”, > 350 µM (not active); in experiment [4], 2.28 µM (active); in “cells [5]” it was > 350 µM (not active); in [6] it was 0.5 µM (active).

Regarding `COc1ccccc1NC(=O)Nc1cccnc1`, the concentration giving a half-maximal response (EC50) in [7] was 2.25 µM (active).

Take `CC1CCCC(C)N1C(=C(Cl)Cl)C(=C1SCCS1)[N+](=O)[O-]` (stereo not given): the values for the EC50 at Mucolipin-3 and on Ion channel NompC were 6.91 µM (active) and > 29.9 µM (not active), respectively. In experiment [8], the AC50 is > 100 µM (inactive).

In the case of `Cc1cccc(/C=N/Nc2cc(N3CCOCC3)nc(N3CCOCC3)n2)c1`, the CC50 in [9] is 24.6 µM (active). The IC50 in [10] is > 50 µM (not active); in experiment [12], 0.692 µM (active); in [14], > 50 µM (not active); in experiment [15], 1.88 µM (active). The values for the concentration for a half-maximal effect (EC50) (in experiment [11]; in experiment [13]; in the experiment “cells [16]”) were < 0.1 µM (active), 1.6 µM (active) and 0.077 µM (active), respectively.

As for `C[C@H]1CN([C@@H](C)CO)S(=O)(=O)c2ccc(-c3ccc(O)cc3)cc2O[C@H]1CN(C)Cc1ccc(-c2ccccc2)cc1`, in [17], the AC50 is > 52 µM (inactive).

In the case of `N#C[C@H]1[C@H](c2ccc(-c3cccc(F)c3)cc2)[C@@H](CO)N1C(=O)NC1CCCC1`, the AC50 in experiment [18] was 20.2 µM (active).

As to `C[C@@H]1C[C@H]2[C@@H]3CCC4=CC(=O)C=C[C@]4(C)[C@@]3(Cl)[C@@H](O)C[C@]2(C)[C@@]1(OC(=O)c1ccco1)C(=O)CCl` [MOMETASONE FUROATE], the IC50 in [19] and in experiment [20] was > 10 µM (inactive) each time.

As usually defined, the EC50 is the concentration giving half of the maximal effect. The AC50 is the midpoint of the concentration-response curve, whichever way the signal moves. The CC50 is the concentration at which the toxic effect on the cells reaches its halfway point. The IC50 is the concentration needed to halve the response being measured.

These data come from ChEMBL document CHEMBL1201862, “PubChem BioAssay data set” (2004).
